This note sets out measurements from US20240228555A9, “ANTIMICROBIAL PEPTIDOMIMETICS” (Basilea Pharmaceutica International AG, Allschwil, priority 2020, published 2024).

SMILES strings stand for the structures. Where a SMILES comes first, the peptide text is derived from it.

Data set [1] relates to human red blood cells (hRBC). In kind it is cell-based. The settings on record: red cells of human, 1 h, 0.2 g/L. In a few lines: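 PBS-washed human erythrocytes (20% v/v) were incubated with compounds at 200 μg/mL for 1 h at 37° C with shaking. Supernatant OD540 was read after 8-fold dilution; hemolysis % = OD540 peptide / OD540 of the 100% lysis control (2.5% Triton X-100 in H2O) ×100, with PBS as 0%.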

In data set [2] the test system is Escherichia coli ATCC 25922. The settings on record: ATCC 25922. In a few lines: (§1)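 Broth microdilution; cation-adjusted MHII; inoculum ~5×10^5 CFU/mL from 0.5 McFarland saline suspension; peptide two-fold serial dilutions; polysorbate 80 0.002% final; peptide stock 1 mg/mL in water.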
Data set [3] concerns Klebsiella pneumoniae SSI3010. The settings on record: SSI3010. In a few lines:
as §1

The test system of data set [4] is Escherichia coli MCR-1 Af 45. The settings on record: Mueller-Hinton broth II, no visible growth after 18-20 hours at 35° C. In a few lines: as §1

Consider `CC[C@H](C)[C@H](NC(=O)[C@@H]1C[C@@H](O)CN1C(=O)[C@@H](N)C(C)C)C(=O)N[C@@H](CCCN)C(=O)N[C@@H](Cc1ccc(O)cc1)C(=O)N[C@@H]1C(=O)N[C@@H](CC(N)=O)C(=O)N[C@@H](CCCNC(=N)N)C(=O)N[C@@H](CCN)C(=O)N[C@@H]([C@@H](C)O)C(=O)N[C@H](CCN)C(=O)N[C@@H](CCCCN)C(=O)N[C@H](C(=O)N[C@@H](CCN)C(=O)N[C@H](C(=O)N[C@@H](Cc2ccc(O)cc2)C(=O)O)[C@@H](C)O)CSSC1(C)C` [Example 122, Val-Hyp-Ile-Orn-Tyr-Pen-Asn-Arg-Dab-Thr-^DDab-Lys-Cys-Dab-Thr-Tyr] (HELM PEPTIDE1{V.[Hyp].I.[Orn].Y.[Pen].N.R.[Dab].T.[NCC[C@@H](N[*:1])C(=O)[*:2]].K.C.[Dab].T.Y}$PEPTIDE1,PEPTIDE1,6:R3-13:R3$$$V2.0), for which the “Hemolysis at 0.2 g/L” value in data set [1] is listed as less than 1%. The “Escherichia coli ATCC 25922 MIC” value in data set [2] was found to be 0.25 mg/L. In data set [3], the “Klebsiella pneumoniae SSI3010 MIC” value was found to be 0.5 mg/L. Further, the “Escherichia coli MCR-1 Af 45 MIC” value in data set [4] turned out to be 0.125 mg/L.

`CC[C@H](C)[C@@H]1NC(=O)[C@@H](NC(=O)[C@H](Cc2ccc(O)cc2)NC(=O)[C@@H](NC(=O)[C@@H](NC(=O)[C@@H]2C[C@@H](O)CN2C(=O)[C@@H](N)C(C)C)[C@@H](C)CC)[C@@H](C)O)C(C)(C)SSC[C@@H](C(=O)N[C@@H](CCN)C(=O)N[C@@H](CCCNC(=N)N)C(=O)N[C@@H](Cc2ccc(O)cc2)C(=O)O)NC(=O)[C@H](CCCN)NC(=O)[C@@H](CCN)NC(=O)[C@H]([C@@H](C)O)NC(=O)[C@H](CCN)NC(=O)[C@H](CCCNC(=N)N)NC1=O` [Example 123, Val-Hyp-Ile-Thr-Tyr-Pen-Ile-Arg-Dab-Thr-^DDab-Orn-Cys-Dab-Arg-Tyr] (HELM PEPTIDE1{V.[Hyp].I.T.Y.[Pen].I.R.[Dab].T.[NCC[C@@H](N[*:1])C(=O)[*:2]].[Orn].C.[Dab].R.Y}$PEPTIDE1,PEPTIDE1,6:R3-13:R3$$$V2.0): in data set [1], the “Hemolysis at 0.2 g/L” value is less than 1%. Further, in data set [2], the “Escherichia coli ATCC 25922 MIC” value is on record as 0.0625 mg/L. In addition, the “Klebsiella pneumoniae SSI3010 MIC” value in data set [3] is 0.125 mg/L. In addition, in data set [4], the “Escherichia coli MCR-1 Af 45 MIC” value is 0.125 mg/L.

Turning to `CC[C@H](C)[C@H](NC(=O)[C@@H](NC(=O)[C@@H]1C[C@@H](O)CN1C(=O)[C@@H](N)C(C)C)[C@@H](C)CC)C(=O)N[C@@H](Cc1ccc(O)cc1)C(=O)N[C@@H]1C(=O)N[C@@H](CC(N)=O)C(=O)N[C@@H](CCCNC(=N)N)C(=O)N[C@@H](CCCNC(N)=O)C(=O)N[C@@H]([C@@H](C)O)C(=O)N[C@H](CCN)C(=O)N[C@@H](CCCCN)C(=O)N[C@H](C(=O)N[C@@H](CCN)C(=O)N[C@@H](CCCNC(=N)N)C(=O)N[C@@H](Cc2ccc(O)cc2)C(=O)O)CSSC1(C)C` [Example 124, Val-Hyp-Ile-Ile-Tyr-Pen-Asn-Arg-Cit-Thr-^DDab-Lys-Cys-Dab-Arg-Tyr] (HELM PEPTIDE1{V.[Hyp].I.I.Y.[Pen].N.R.[Cit].T.[NCC[C@@H](N[*:1])C(=O)[*:2]].K.C.[Dab].R.Y}$PEPTIDE1,PEPTIDE1,6:R3-13:R3$$$V2.0), in data set [1], the “Hemolysis at 0.2 g/L” value is on record as less than 1%. Moreover, in data set [2], the “Escherichia coli ATCC 25922 MIC” value was determined as 0.25 mg/L. In addition, the “Klebsiella pneumoniae SSI3010 MIC” value in data set [3] was determined as 0.5 mg/L. Moreover, the “Escherichia coli MCR-1 Af 45 MIC” value in data set [4] worked out at 0.25 mg/L.

`CC[C@H](C)[C@H](NC(=O)[C@@H]1C[C@@H](O)CN1C(=O)[C@@H](N)C(C)C)C(=O)N[C@@H](CCCCNC)C(=O)N[C@@H](Cc1ccc(O)cc1)C(=O)N[C@@H]1C(=O)N[C@@H](CC(N)=O)C(=O)N[C@@H](CCCNC(=N)N)C(=O)N[C@@H](CCN)C(=O)N[C@@H]([C@@H](C)O)C(=O)N[C@H](CCN)C(=O)N[C@@H](CCCCN)C(=O)N[C@H](C(=O)N[C@@H](CCN)C(=O)N[C@@H](CCCNC(=N)N)C(=O)N[C@@H](Cc2ccc(O)cc2)C(=O)O)CSSC1(C)C` [Example 125, Val-Hyp-Ile-Lys(Me)-Tyr-Pen-Asn-Arg-Dab-Thr-^DDab-Lys-Cys-Dab-Arg-Tyr] (HELM PEPTIDE1{V.[Hyp].I.[CNCCCC[C@H](N[*:1])C(=O)[*:2]].Y.[Pen].N.R.[Dab].T.[NCC[C@@H](N[*:1])C(=O)[*:2]].K.C.[Dab].R.Y}$PEPTIDE1,PEPTIDE1,6:R3-13:R3$$$V2.0): in data set [1], the “Hemolysis at 0.2 g/L” value was less than 1%. Also, the “Escherichia coli ATCC 25922 MIC” value in data set [2] is 0.125 mg/L. Also, the “Klebsiella pneumoniae SSI3010 MIC” value in data set [3] is 0.5 mg/L. Moreover, the “Escherichia coli MCR-1 Af 45 MIC” value in data set [4] was 0.03125 mg/L.

Consider `CC[C@H](C)[C@H](NC(=O)[C@@H]1C[C@@H](O)CN1C(=O)[C@@H](N)C(C)C)C(=O)N[C@H](C(=O)N[C@@H](Cc1ccc(O)cc1)C(=O)N[C@@H]1C(=O)N[C@@H](CC(N)=O)C(=O)N[C@@H](CCCNC(=N)N)C(=O)N[C@@H](CCN)C(=O)N[C@@H]([C@@H](C)O)C(=O)N[C@H](CCN)C(=O)N[C@@H](CCCCN)C(=O)N[C@H](C(=O)N[C@@H](CCN)C(=O)N[C@@H](CCCNC(=N)N)C(=O)N[C@@H](Cc2ccc(O)cc2)C(=O)O)CSSC1(C)C)C(C)(C)O` [Example 126, Val-Hyp-Ile-Val(3OH)-Tyr-Pen-Asn-Arg-Dab-Thr-^DDab-Lys-Cys-Dab-Arg-Tyr] (HELM PEPTIDE1{V.[Hyp].I.[CC(C)(O)[C@H](N[*:1])C(=O)[*:2]].Y.[Pen].N.R.[Dab].T.[NCC[C@@H](N[*:1])C(=O)[*:2]].K.C.[Dab].R.Y}$PEPTIDE1,PEPTIDE1,6:R3-13:R3$$$V2.0), for which the “Hemolysis at 0.2 g/L” value in data set [1] is less than 1%. The “Escherichia coli ATCC 25922 MIC” value in data set [2] turned out to be 0.0625 mg/L. Besides, the “Klebsiella pneumoniae SSI3010 MIC” value in data set [3] was determined as 0.125 mg/L. In data set [4], the “Escherichia coli MCR-1 Af 45 MIC” value is 0.0625 mg/L.

On to `CC[C@H](C)[C@H](NC(=O)[C@@H]1CC(F)(F)CN1C(=O)[C@@H](N)C(C)C)C(=O)N[C@H](C(=O)N[C@@H](Cc1ccc(O)cc1)C(=O)N[C@@H]1C(=O)N[C@@H](CC(N)=O)C(=O)N[C@@H](CCCNC(=N)N)C(=O)N[C@@H](CCN)C(=O)N[C@@H]([C@@H](C)O)C(=O)N[C@H](CCN)C(=O)N[C@@H](CCCCN)C(=O)N[C@H](C(=O)N[C@@H](CCN)C(=O)N[C@@H](CCCNC(=N)N)C(=O)N[C@@H](Cc2ccc(O)cc2)C(=O)O)CSSC1(C)C)[C@@H](C)O` [Example 127, Val-Pro(4,4F2)-Ile-Thr-Tyr-Pen-Asn-Arg-Dab-Thr-^DDab-Lys-Cys-Dab-Arg-Tyr] (HELM PEPTIDE1{V.[O=C([C@@H]1CC(F)(F)CN1[*:1])[*:2]].I.T.Y.[Pen].N.R.[Dab].T.[NCC[C@@H](N[*:1])C(=O)[*:2]].K.C.[Dab].R.Y}$PEPTIDE1,PEPTIDE1,6:R3-13:R3$$$V2.0), for which the “Hemolysis at 0.2 g/L” value in data set [1] was less than 1%. For the same compound, the “Escherichia coli ATCC 25922 MIC” value in data set [2] came out at 0.25 mg/L. Besides, the “Klebsiella pneumoniae SSI3010 MIC” value in data set [3] is 0.5 mg/L. For the same compound, the “Escherichia coli MCR-1 Af 45 MIC” value in data set [4] is reported as 0.125 mg/L.
